Experimental data published in article PMC4175002, “The Design and Synthesis of Potent and Selective Inhibitors of Trypanosoma brucei Glycogen Synthase Kinase 3 for the Treatment of Human African Trypanosomiasis” (Journal of Medicinal Chemistry, 2014).

Key:
HsGSK3β = HsGSK3β (Homo sapiens, UniProt P49841); experiment: Radiometric Flashplate potency assay, HsGSK3β; assay type: biochemical; conditions: for ratio HsGSK3β/TbGSK3: ratio of IC50 values
Experimental: (§1) For compound potency determinations, a radiometric 96-well Flashplate assay (PerkinElmer) was adopted. Compounds were solubilized in DMSO at a top concentration of 3 mM and serially diluted to achieve 10-point titration of final assay concentrations from 30 μM to 0.3 nM with a final DMSO concentration of 1% (v/v). The reaction mixtures contained 1 μM biotinylated GSP2 substrate, 1 μM ATP, 3.7 KBq/well [γ-33P]-ATP and 2.5 nM TbGSK3 in the TbGSK3 kinase assay buffer. GSK3 inhibitors were screened for selectivity assessment also against HsGSK3β. For HsGSK3 assay, the reaction mixes contained 1 μM biotinylated GSP2 substrate, 2 μM ATP, 7.4 KBq/well [γ-33P]-ATP and 15 nM HsGSK3β in the TbGSK3 kinase assay buffer (25 mM Tris-HCl, pH 7.5, 10 mM MgCl2, 5 mM DTT, 0.02% CHAPS, 2 U/mL heparin). For HsCDK2/cyclin A assay, the reaction mixtures contained 1 mM CDK5 biotinylated peptide substrate (Biotin-C6-PKTPKKAKKL), 1 μM ATP, 7.4 KBq/well [γ-^33P]-ATP and 2 nM HsCDK2/cyclin A in the kinase assay buffer (50 mM Tris-HCl, pH 7.5, 10 mM MgCl2, 2 mM DTT, 100 mM NaCl, 0.2 mM EGTA, 0.02% (v/v) Brij35).
This implies that a difference of >0.3 in pIC50 can be considered statistically significant for this assay.

MRC5 cells = experiment: MRC5 proliferation assay (resazurin); assay type: cell-based, human; conditions: T. b. brucei versus MRC5 EC50
Experimental: (§2) Measurement of inhibition of the proliferation of MRC5 (human lung fibroblast) cells and T. b. brucei bloodstream stage cells was performed using a modification of the cell viability assay previously described.[33] Compounds (50 μM to 0.5 nM) were incubated with 2 × 10^3 cells/well in 0.2 mL of the appropriate culture medium (MEM with 10% fetal bovine serum for MRC5 cells) in clear 96-well plates. Plates were incubated at 37 °C in the presence of 5% CO2 for 69 h. Resazurin was then added to a final concentration of 50 μM, and plates were incubated as above for a further 4 h before being read on a BioTek flx800 fluorescent plate reader.

HsCDK2/cyclin A = HsCDK2/cyclin A (Homo sapiens, UniProt P24941); experiment: Radiometric Flashplate potency assay, HsCDK2/cyclin A; assay type: biochemical; conditions: for ratio HsCDK2/TbGSK3: ratio of IC50 values; for IC50: average of two or more experiments, 1 μM ATP
Experimental: as §1
For the HsCDK2 assay, the analysis was performed using two different standards (GW8510 and staurosporine) tested respectively five times in a single run and 19 times in 2 independent runs. This implies that a difference of >0.3 in pIC50 can be considered statistically significant for this assay.

TbGSK3 short = target: T1, TbGSK3 short (Trypanosoma brucei brucei, UniProt Q388M1); experiment: Radiometric 96-well Flashplate potency assay, TbGSK3; assay type: biochemical; conditions: for decrease in potency against TbGSK3: relative to cyclohexane analogue 9c; for TbGSK3 potency relative to 4f: more potent than the unsubstituted phenyl compound 4f
T1 sequence (Q388M1 1-352): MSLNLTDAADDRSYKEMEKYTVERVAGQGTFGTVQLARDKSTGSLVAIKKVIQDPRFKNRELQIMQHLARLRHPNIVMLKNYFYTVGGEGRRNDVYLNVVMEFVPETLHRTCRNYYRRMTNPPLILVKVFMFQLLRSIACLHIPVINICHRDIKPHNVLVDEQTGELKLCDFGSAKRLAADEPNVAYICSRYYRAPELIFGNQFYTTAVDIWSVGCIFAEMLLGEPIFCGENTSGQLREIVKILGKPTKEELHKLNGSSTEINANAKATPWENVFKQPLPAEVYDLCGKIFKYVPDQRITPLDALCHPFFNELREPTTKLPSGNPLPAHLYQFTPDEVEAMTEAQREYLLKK
Experimental: as §1
The statistical significance of the compound potency (IC50) was based on the performance of standard molecules which have been tested to a high replication. In the case of TbGSK3 short assay, the standard compound GW8510 was tested 93 times across 9 independent runs. […] The minimum significant ratio (MSR) of 0.4 was evaluated considering the following formula: [drawing 1] where SD is the standard deviation and N the number of replicate values routinely used for the assay (2 in our case).[31] This implies that a difference of >0.4 in pIC50 can be considered statistically significant for this assay.

[1] = system: bloodstream form T. b. brucei; experiment: Trypanosome proliferation assay (resazurin); assay type: cell-based; conditions: Trypanosoma brucei, 72 h, concentration required to inhibit growth in culture by 50% over 72 h
Experimental: as §2

HsGSK3β, sequence (P49841 whole entry): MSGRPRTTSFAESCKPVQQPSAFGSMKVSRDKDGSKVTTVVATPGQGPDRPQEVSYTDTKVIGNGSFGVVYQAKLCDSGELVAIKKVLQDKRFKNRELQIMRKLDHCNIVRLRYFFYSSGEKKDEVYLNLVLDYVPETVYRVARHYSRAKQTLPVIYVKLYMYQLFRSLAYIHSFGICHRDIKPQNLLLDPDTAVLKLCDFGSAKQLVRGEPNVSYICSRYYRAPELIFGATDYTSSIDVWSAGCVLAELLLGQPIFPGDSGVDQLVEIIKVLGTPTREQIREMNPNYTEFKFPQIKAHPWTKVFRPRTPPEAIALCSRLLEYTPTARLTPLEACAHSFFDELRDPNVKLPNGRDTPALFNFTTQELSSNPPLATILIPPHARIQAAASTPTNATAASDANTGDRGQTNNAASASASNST

## CO[C@H]1CC[C@H](NC(=O)c2n[nH]cc2NC(=O)c2ccc(F)cc2F)CC1 [Compound 4o, 4-(2,4-Difluorobenzamido)-N-(4-methoxycyclohexyl)-1H-pyrazole-3-carboxamide]
HsGSK3β
  ratio HsGSK3β/TbGSK3: <0.09

## CO[C@H]1CC[C@H](NC(=O)c2n[nH]cc2NC(=O)c2ccc(N3CCCC3)cc2)CC1 [Compound 4s, N-(4-Methoxycyclohexyl)-4-(4-(pyrrolidin-1-yl)benzamido)-1H-pyrazole-3-carboxamide]
MRC5 cells
  selectivity over MRC5 cells: > 19 fold
HsGSK3β
  ratio HsGSK3β/TbGSK3: <0.26

## COc1cccc(OC)c1C(=O)Nc1c[nH]nc1C(=O)NC1CC1 [Compound 9a, N-Cyclopropyl-4-(2,6-dimethoxybenzamido)-1H-pyrazole-3-carboxamide]
HsCDK2/cyclin A
  ratio HsCDK2/TbGSK3: >830

## COc1cccc(OC)c1C(=O)Nc1c[nH]nc1C(=O)N[C@H]1CC[C@H](OC)CC1 [Compound 9x]
HsGSK3β
  ratio HsGSK3β/TbGSK3: <2.5

## CCCCCNC(=O)c1n[nH]cc1NC(=O)c1c(OC)cccc1OC [Compound 9s, 4-(2,6-Dimethoxybenzamido)-N-pentyl-1H-pyrazole-3-carboxamide]
MRC5 cells
  selectivity over MRC5 cells: > 7 fold
HsGSK3β
  ratio HsGSK3β/TbGSK3: 100

## COc1cccc(OC)c1C(=O)Nc1c[nH]nc1C(=O)Nc1ccccc1 [Compound 9k, 4-(2,6-Dimethoxybenzamido)-N-phenyl-1H-pyrazole-3-carboxamide]
TbGSK3 short
  decrease in potency against TbGSK3: 6 fold

## COc1cc(OC)c(C(=O)Nc2c[nH]nc2C(=O)N[C@H]2CC[C@H](OC)CC2)c(OC)c1 [Compound 4n, N-(4-Methoxycyclohexyl)-4-(2,4,6-trimethoxybenzamido)-1H-pyrazole-3-carboxamide]
MRC5 cells
  selectivity over MRC5 cells: > 9 fold
TbGSK3 short
  TbGSK3 potency relative to 4f: approximately 10 fold
HsCDK2/cyclin A; TbGSK3 versus HsCDK2, running text
  selectivity over HsCDK2: > 1000 fold
HsGSK3β; TbGSK3 versus HsGSK3, running text
  selectivity over HsGSK3: > 10 fold

## O=C1Nc2ccc3ncsc3c2/C1=C/Nc1ccc(S(=O)(=O)Nc2ccccn2)cc1 [GW8510, reference compound]
TbGSK3 short; standard compound tested 93 times across 9 independent runs, SD 0.23
  average pIC50 TbGSK3 short assay: 8.26
HsGSK3β; standard compound tested 47 times across 5 independent runs, SD 0.21
  average pIC50 HsGSK3 assay: 8.10

## CO[C@H]1CC[C@H](NC(=O)c2n[nH]cc2NC(=O)c2c(C)nc3ccccn23)CC1 [Compound 4x, N-(3-((4-Methoxycyclohexyl)carbamoyl)-1H-pyrazol-4-yl)-2-methylimidazo[1,2-a]pyridine-3-carboxamide]
MRC5 cells
  selectivity over MRC5 cells: 12 fold

## CO[C@H]1CC[C@H](NC(=O)c2n[nH]cc2NC(=O)c2cc3ccccn3n2)CC1 [Compound 4v, N-(3-((4-Methoxycyclohexyl)carbamoyl)-1H-pyrazol-4-yl)pyrazolo[1,5-a]pyridine-2-carboxamide]
HsGSK3β
  ratio HsGSK3β/TbGSK3: <0.080

## CO[C@H]1CC[C@H](NC(=O)c2n[nH]cc2NC(=O)c2ccc(OC(F)F)cc2)CC1 [Compound 4r, 4-(4-(Difluoromethoxy)benzamido)-N-(4-methoxycyclohexyl)-1H-pyrazole-3-carboxamide]
HsGSK3β
  ratio HsGSK3β/TbGSK3: <0.31

## CO[C@H]1CC[C@H](NC(=O)c2n[nH]cc2NC(=O)c2ccc(N3CCN(C)CC3)cc2)CC1 [Compound 4t, N-(4-Methoxycyclohexyl)-4-(4-(4-methylpiperazin-1-yl)benzamido)-1H-pyrazole-3-carboxamide]
HsGSK3β
  ratio HsGSK3β/TbGSK3: <0.071

## CO[C@H]1CC[C@H](NC(=O)c2n[nH]cc2NC(=O)c2ccccc2F)CC1 [Compound 4g, 4-(2-Fluorobenzamido)-N-(4-methoxycyclohexyl)-1H-pyrazole-3-carboxamide]
HsCDK2/cyclin A
  ratio HsCDK2/TbGSK3: <0.7

## CO[C@H]1CC[C@H](NC(=O)c2n[nH]cc2NC(=O)c2cc(Cl)cc(Cl)c2)CC1 [Compound 4q, 4-(3,5-Dichlorobenzamido)-N-(4-methoxycyclohexyl)-1H-pyrazole-3-carboxamide]
HsGSK3β
  ratio HsGSK3β/TbGSK3: <0.08

## COc1cccc(OC)c1C(=O)Nc1c[nH]nc1C(=O)NCCCOC(C)C [Compound 9t, 4-(2,6-Dimethoxybenzamido)-N-(3-isopropoxypropyl)-1H-pyrazole-3-carboxamide]
MRC5 cells
  selectivity over MRC5 cells: > 7 fold

## CO[C@H]1CC[C@H](NC(=O)c2n[nH]cc2NC(=O)c2cc3ccccc3o2)CC1 [Compound 4u, 4-(Benzofuran-2-carboxamido)-N-(4-methoxycyclohexyl)-1H-pyrazole-3-carboxamide]
HsGSK3β
  ratio HsGSK3β/TbGSK3: <0.38

## CO[C@H]1CC[C@H](NC(=O)c2n[nH]cc2NC(=O)c2ccccc2Nc2cccc(C)c2C)CC1 [Compound 4l, 4-(2-((2,3-Dimethylphenyl)amino)benzamido)-N-(4-methoxycyclohexyl)-1H-pyrazole-3-carboxamide]
HsCDK2/cyclin A
  IC50: > 10 µM
  ratio HsCDK2/TbGSK3: >150

## COc1cccc(OC)c1C(=O)Nc1c[nH]nc1C(=O)Nc1ccncc1 [Compound 9l, 4-(2,6-Dimethoxybenzamido)-N-(pyridin-4-yl)-1H-pyrazole-3-carboxamide]
TbGSK3 short
  decrease in potency against TbGSK3: 6 fold

## COc1cccc(OC)c1C(=O)Nc1c[nH]nc1C(=O)NC1CCCCCC1 [Compound 9d, N-Cycloheptyl-4-(2,6-dimethoxybenzamido)-1H-pyrazole-3-carboxamide]
MRC5 cells
  selectivity over MRC5 cells: > 7 fold

## COc1ccccc1C(=O)Nc1c[nH]nc1C(=O)N[C@H]1CC[C@H](OC)CC1 [Compound 4j, 4-(2-Methoxybenzamido)-N-(4-methoxycyclohexyl)-1H-pyrazole-3-carboxamide]
TbGSK3 short
  TbGSK3 potency relative to 4f: approximately 10 fold
[1]
  EC50: < 1 µM
HsGSK3β
  ratio HsGSK3β/TbGSK3: <3.3

## CO[C@H]1CC[C@H](NC(=O)c2n[nH]cc2NC(=O)c2cnc3ccccn23)CC1 [Compound 4w, N-(3-((4-Methoxycyclohexyl)carbamoyl)-1H-pyrazol-4-yl)imidazo[1,2-a]pyridine-3-carboxamide]
HsGSK3β
  ratio HsGSK3β/TbGSK3: <0.053

## CO[C@H]1CC[C@H](NC(=O)c2n[nH]cc2NC(=O)c2cc(F)cc(F)c2)CC1 [Compound 4p, 4-(3,5-Difluorobenzamido)-N-(4-methoxycyclohexyl)-1H-pyrazole-3-carboxamide]
HsGSK3β
  ratio HsGSK3β/TbGSK3: <0.21

## COc1cccc(OC)c1C(=O)Nc1c[nH]nc1C(=O)NC1CCCCC1 [Compound 9c, N-Cyclohexyl-4-(2,6-dimethoxybenzamido)-1H-pyrazole-3-carboxamide]
MRC5 cells
  selectivity over MRC5 cells: > 7 fold

## COc1cccc(OC)c1C(=O)Nc1c[nH]nc1C(=O)Nc1ccccn1 [Compound 9m, 4-(2,6-Dimethoxybenzamido)-N-(pyridin-2-yl)-1H-pyrazole-3-carboxamide]
TbGSK3 short; 2-pyridine analogue much less active, comparator not stated clearly (9c or 9k/9l)
  loss of activity against TbGSK3: 50 fold

## CO[C@H]1CC[C@H](NC(=O)c2n[nH]cc2NC(=O)c2ccccc2Nc2ccccc2)CC1 [Compound 4k, N-(4-Methoxycyclohexyl)-4-(2-(phenylamino)benzamido)-1H-pyrazole-3-carboxamide]
HsCDK2/cyclin A
  IC50: > 10 µM
  ratio HsCDK2/TbGSK3: >910

## CO[C@H]1CC[C@H](NC(=O)c2n[nH]cc2NC(=O)c2ccccc2C(F)(F)F)CC1 [Compound 4h, N-(4-Methoxycyclohexyl)-4-(2-(trifluoromethyl)benzamido)-1H-pyrazole-3-carboxamide]
HsGSK3β
  ratio HsGSK3β/TbGSK3: <0.72
